Data taken from patent publication US20030008925A1, “Treatment of drug-induced sleepiness” (priority 1997, published 2003).

Experiments:
Assay type in all cases: in vivo, human
[1] = system: patient under morphine treatment; test: Pain rating on the EVA scale in patients
Text: (§1) In order to illustrate the invention, but without limiting its scope, the results of observations made confidentially on patients in the context of hospitalization are reported below. The consent of the patients was obtained after the compassionate grounds of the prescription had been explained to them.

[2] = Body weight (nutritional recovery) of patient; conditions: Case 1; in 10 days, under Moscontin plus Modiodal 200 mg
Experimental: Given the progression of painful phenomena, at the end of October 1997 the patient is hospitalized. At this point in time the dosage of Moscontin® is 100 mg twice every 24 hours, their EVA score is 60, and their sleepiness evaluated on the Epworth scale is 20. The Moscontin® is increased to 160 mg twice every 24 hours. After stabilization of the analgesic level at an EVA score of 30, treatment with Modiodal®, initially in a dosage of 100 mg and then rapidly 200 mg, is initiated. This dosage allows their Epworth score to drop below 10. This quality of awakening has enabled them to resume family relationships of a better quality. The efficacy of the analgesia and their better vigilance level has enabled them to take accompanied walks. A nutritional recovery manifesting itself by a weight increase of 2 kg in 10 days is also to be noted in this patient.

[3] = system: patient under morphine treatment; test: Sleepiness evaluated on the Epworth scale in hospitalized patients under morphine treatment
Text: the Epworth scale, while ensuring the analgesic properties of morphine and the properties of antidepressant, anxiolytic or analgesic medicaments are maintained. The patient is thus re-established in a satisfactory relational life.
as §1

[4] = Case 2, Skenan doses doubled combined with 200 mg Modiodal
[5] = Case 5, morphine treatment at home (oral)

## NC(=O)C[S+]([O-])C(c1ccccc1)c1ccccc1 (stereo not drawn) [Modiodal®, benzhydrylsulphinyl-acetamide]
[1]; [4]
  EVA (analgesic level): 20
[2]
  weight increase: 2 kg
[3]; Case 1, Modiodal 100 mg then 200 mg, with Moscontin 160 mg twice every 24 hours
  Epworth score: below 10
[3]; [4]
  vigilance level rating (Epworth): less than 10
[3]; Case 3, Modiodal 100 mg then 200 mg, with morphine 40 mg subcutaneous
  state of vigilance rating (Epworth): 12
[3]; Case 4, modafinil 300 mg achieved progressively, with Moscontin 100 mg x2
  sleepiness index after modafinil: 11
[3]; Case 5, modafinil 200 mg per day, with morphine 40 mg subcutaneous
  sleepiness index after modafinil: 15
[3]; about 200 to 400 mg per day, in 1 or 2 doses
  clinical results (in words): very favourable results
[3]; summary of pilot cases 1 to 5
  effect on morphine sleepiness and that associated with clonazepam (in words): efficacy

## CN1CC[C@]23c4c5ccc(O)c4O[C@H]2[C@@H](O)C=C[C@H]3[C@H]1C5 [morphine]
[1]; Case 3, continuous subcutaneous morphine combined with oral clonazepam
  pain rating on the EVA scale: 30
[1]; [5]
  EVA: 40
[3]; Case 3, morphine 40 mg subcutaneous, before Modiodal
  state of sleepiness on the Epworth scale: 20
[3]; [5]
  sleepiness (in words): severe sleepiness
[3]; Case 5, under morphine, before modafinil
  sleepiness index before modafinil: 22

## O=C(C[S+]([O-])C(c1ccccc1)c1ccccc1)NO (stereo not drawn) [Olmifon®, benzhydrylsulphinyl-acetohydroxamic acid]
[3]; about 1,200 to 1,800 mg per day, in 2 doses
  clinical results (in words): very favourable results
